Data set [1] is described as follows: Cell viability: resazurin assay. Type of data set: cell-based, human. To be noted: human, BEAS2B cells; n = 3-5. The procedure: BEAS2B cells were seeded in 384-well plates (100 µL; 3000 / well /; BD Falcon, Catalogue No 353962) in RPMI-LHC8 (RPMI-1640 and LHC8 media combined in equal proportions) one day before experimentation. For cell-free control wells, RPMI-LHC8 (100 µL) was added. Test compounds (0.5 µL of a DMSO solution) were added to give a final DMSO concentration of 0.5% using an Integra VIAFLO 96 (Integra, Zizers, Switzerland). BEAS2B cells were incubated with each test compound for 1 day (37° C. / 5% CO2 in RPMI-LHC8). After addition of resazurin stock solution (5 µL, 0.04%) the plates were incubated for a further 4 hr (37° C. / 5% CO2). The fluorescence of each well at 545 nm (excitation) and 590 nm (emission) was determined using a multi-scanner (Clariostar: BMG Labtech). The percentage loss of cell viability was calculated for each well relative to vehicle (0.5% DMSO) treatment. Where appropriate, a CC50 value was calculated from the concentration-response curve generated from the concentration-response curve for each test compound.

In data set [2] the test system is aspergillus fumigatus infection of BEAS2B cells. Put plainly: Aspergillus fumigatus infection of bronchial epithelial cells (GM in supernatant). Type of data set: cell-based. To be noted: bronchial epithelial cells infected with Aspergillus fumigatus; read-out: MIC50 Infection of BEAS2B cells. The procedure:
BEAS2B cells were seeded in 96-well plates (100 µL; 30,000 cells / well; Catalogue No 3596, Sigma Aldrich, Dorset, UK) in 10% FBS RPMI-1640 and were then incubated (37° C., 5% CO2) for one day before experimentation. Test compounds (0.5 µL DMSO solution) or vehicle (DMSO) were added to each well to give a final DMSO concentration of 0.5%. BEAS2B cells were incubated with test compounds for 1 hr (35° C., 5% CO2) before infection with aspergillus fumigatus (20 µL; Public Health England) conidia suspension (0.5×10^5 /ml in 10% FBS RPMI-1640). The plate was incubated for 24 hr (35° C., 5% CO2). Supernatant (50 µL) was collected and transferred to a PCR plate (Catalogue No L1402-9700, Starlab, Milton Keynes, UK), which was frozen (-20° C.) until use. After thawing, supernatant (5 µL) was diluted 1:20 by adding R7-PBS solution (95 µL; 1:4 R7 to PBS; Bio-Rad Laboratories, Redmond, WA, USA). GM levels in these samples (50 µL) were measured using Platelia GM-EIA kits (Bio-Rad Laboratories, Redmond, WA, USA). The percentage inhibition for each well was calculated and the IC50 value was calculated from the concentration-response curve generated for each test compound.

In data set [3] the test system is Aspergillus fumigatus NCPF7100. Put plainly: Broth microdilution assay (modified EUCAST). Type of data set: cell-based. To be noted: Aspergillus fumigatus, NCPF7100, read-out: MIC75 against Aspergillus fumigatus isolate NCPF7100.
Data set [4] relates to Aspergillus fumigatus NCPF7099. Put plainly: Broth microdilution assay (modified EUCAST). Type of data set: cell-based. To be noted: Aspergillus fumigatus, NCPF7099, n = 3, read-out: MIC75 against Aspergillus fumigatus isolate NCPF7099. The procedure:
(§1) This assay was conducted using a modified method published by EUCAST (Rodriguez-Tudela et al., 2008). Spores of aspergillus fumigatus (NCPF2010, NCPF7010 (Methionine 220 mutation), NCPF7099 (Glycine G54 mutation) from Public Health England, Wiltshire; TR34/L98H mutants from St Louis Hospital, Paris, France) were cultured in Sabouraud dextrose agar for 3 days. A stock spore suspension was prepared from a Sabouraud dextrose agar culture by washing with PBS-tween (10 mL; PBS containing 0.05% Tween-20, 100 U/mL Penicillin and 100 U/mL Streptomycin). The spore count was assessed using a Neubauer haemocytometer and then adjusted to 10^6 spores/mL with PBS. A working suspension of spores (2 × 10^5 spores/mL) was prepared in filter sterilised, BSA MOPS RPMI-1640 (50 mL; RPMI-1640 containing 2 mM L-glutamine, 0.5% BSA, 2% glucose, 0.165 M MOPS, buffered to pH 7 with NaOH). For the assay, BSA MOPS RPMI-1640 (50 µL/well) was added throughout the 384-well plate (Catalogue number 353962, BD Falcon, Oxford, UK) first. Test compounds (0.5 µL DMSO solution) were then added in quadruplicate using an Integra VIAFLO 96 (Integra, Zizers, Switzerland), and mixed well using a plate mixer. Subsequently 50 µL of the working spore suspension prepared above was added to all wells except non-spore control wells. For non-spore control wells, BSA MOPS-RPMI solution (50 µL/well) was added instead. The plate was covered with a plastic lid, and incubated (35° C. with ambient air) for 48 hr. The OD of each well at 530 nm was determined using a multi-scanner (Clariostar: BMG, Buckinghamshire, UK). The percentage inhibition for each well was calculated and the MIC50, MIC75 and MIC90 values were calculated from the concentration-response curve generated for each test compound.

For data set [5], the system named is Aspergillus fumigatus L98H (TR34/L98H). As to the kind of experiment: Broth microdilution assay (modified EUCAST). Type of data set: cell-based. The conditions noted are these: Aspergillus fumigatus, read-out: MIC75 against Aspergillus fumigatus isolate L98H. The procedure: as §1
For data set [6], the system named is Aspergillus fumigatus NCPF2010. As to the kind of experiment: Broth microdilution assay (modified EUCAST). To be noted: Aspergillus fumigatus, NCPF2010, read-out: MIC75 against Aspergillus fumigatus isolate NCPF2010. It counts as cell-based. The procedure:
as §1

The test system of data set [7] is aspergillus fumigatus (ATCC 13073 [strain: NIH 5233]). Put plainly: In vivo anti-fungal activity, prophylactic and therapeutic treatment of infected immunocompromised neutropenic mice. Also noted: species or system A/J mice. To be noted: prophylactic treatment (days 0, 1, 2 and 3); 0.4 mg/mL.

≈ marks a conversion by molar mass, not a printed value.

The compound `N#Cc1ccc(NC(=O)c2ccc(N3CCN(c4ccc(OCC5CO[C@@](Cn6cncn6)(c6ccc(F)cc6F)C5)c(Cl)c4)CC3)cc2)cc1` (stereo in doubt) [Example 10, 4-(4-(4-(((3R,5R)-5-((1H-1,2,4-triazol-1-yl)methyl)-5-(2,4-difluorophenyl)tetrahydrofuran-3-yl)methoxy)-3-chlorophenyl)piperazin-1-yl)-N-(4-cyanophenyl)benzamide] registered a CC50 at 1 day in data set [1] of more than 14.1 µM. Further, the MIC50 in data set [2] came out at 0.0145 µM (≈ 0.0103 µg/mL). The MIC in data set [3] was determined as 0.0295 µM (≈ 0.021 µg/mL); in data set [4], 0.00996 µM (≈ 0.00707 µg/mL); in data set [5], 0.0812 µM (≈ 0.0577 µg/mL); in data set [6] it was 0.022 µM (≈ 0.0156 µg/mL).
For `O=C(Nc1ccc(F)cc1)c1ccc(N2CCN(c3ccc(OCC4CO[C@@](Cn5cncn5)(c5ccc(F)cc5F)C4)c(F)c3)CC2)cc1` (stereo in doubt) [Example 17, 4-(4-(4-(((3R, 5R)-5-((1H-1,2,4-triazol-1-yl)methyl)-5-(2,4-difluorophenyl)tetrahydrofuran-3-yl)methoxy)-3-fluorophenyl)piperazin-1-yl)-N-(4-fluorophenyl)benzamide], the “% Inhibition versus Infected Controls, GM in BALF” value in data set [7] was found to be 45%. For the same compound, the “% Inhibition versus Infected Controls, GM in serum” value in data set [7] was determined as 72%. Also, the “% Inhibition versus Infected Controls, Lung Fungal Load” value in data set [7] is on record as 83%. Moreover, the CC50 at 1 day in data set [1] is more than 14.6 µM. Also, the MIC in data set [3] was determined as 0.0133 µM (≈ 0.00913 µg/mL); in data set [4], 0.0185 µM (≈ 0.0127 µg/mL); in data set [5], 0.409 µM (≈ 0.281 µg/mL); in data set [6] it was 0.00215 µM (≈ 0.00148 µg/mL).
For `O=C(Nc1ccc(F)cc1)c1ccc(N2CCN(c3ccc(OCC4CO[C@@](Cn5cncn5)(c5ccc(F)cc5F)C4)c(Cl)c3)CC2)cc1` (stereo in doubt) [Example 18, 4-(4-(4-(((3R,5R)-5-((1H-1,2,4-triazol-1-yl)methyl)-5-(2,4-difluorophenyl)tetrahydrofuran-3-yl)methoxy)-3-chlorophenyl)piperazin-1-yl)-N-(4-fluorophenyl)benzamide], the CC50 at 1 day in data set [1] is more than 14.2 µM. In addition, in data set [2], the MIC50 was 0.0866 µM (≈ 0.0609 µg/mL). Further, the MIC amounted to 0.0471 µM (≈ 0.0331 µg/mL) in data set [3], 0.011 µM (≈ 0.00773 µg/mL) in data set [4], 0.0733 µM (≈ 0.0515 µg/mL) in data set [5] and 0.0222 µM (≈ 0.0156 µg/mL) in data set [6].
Regarding `NS(=O)(=O)c1ccc(NC(=O)c2ccc(N3CCN(c4ccc(OCC5CO[C@@](Cn6cncn6)(c6ccc(F)cc6F)C5)c(F)c4)CC3)cc2)cc1` (stereo in doubt) [Example 22, 4-(4-(4-(((3R,5R)-5-((1H-1,2,4-triazol-1-yl)methyl)-5-(2,4-difluorophenyl)tetrahydrofuran-3-yl)methoxy)-3-fluorophenyl)piperazin-1-yl)-N-(4-sulfamoylphenyl)benzamide], the CC50 at 1 day in data set [1] was more than 13.4 µM. Moreover, the MIC50 in data set [2] was found to be 0.00477 µM (≈ 0.00357 µg/mL). The MIC is 0.022 µM (≈ 0.0165 µg/mL) in data set [3], 0.0164 µM (≈ 0.0123 µg/mL) in data set [4], more than 1.34 µM in data set [5] and 0.0113 µM (≈ 0.00845 µg/mL) in data set [6].
As for `N#Cc1ccc(NC(=O)c2ccc(N3CCN(c4ccc(OCC5CO[C@@](Cn6cncn6)(c6ccc(F)cc6F)C5)c(F)c4)CC3)cc2)c(F)c1` (stereo in doubt) [Example 24, 4-(4-(4-(((3R, 5R)-5-((1H-1,2,4-triazol-1-yl)methyl)-5-(2,4-difluorophenyl)tetrahydrofuran-3-yl)methoxy)3-fluorophenyl)piperazin-1-yl)-N-(4-cyano-2-fluorophenyl)benzamide], the CC50 at 1 day in data set [1] was more than 14.1 µM. Also, the MIC in data set [3] is 0.014 µM (≈ 0.00996 µg/mL); in data set [4], 0.0205 µM (≈ 0.0146 µg/mL); in data set [5], 0.191 µM (≈ 0.136 µg/mL); in data set [6], 0.0099 µM (≈ 0.00705 µg/mL).
In data set [1], `O=C(Nc1ccc(F)cn1)c1ccc(N2CCN(c3ccc(OCC4CO[C@@](Cn5cncn5)(c5ccc(F)cc5F)C4)c(F)c3)CC2)cc1` (stereo in doubt) [Example 40, 4-(4-(4-(((3R, 5R)-5-((1H-1,2,4-triazol-1-yl)methyl)-5-(2,4-difluorophenyl)tetrahydrofuran-3-yl)methoxy)-3-fluorophenyl)piperazin-1-yl)-N-(5-fluoropyridin-2-yl)benzamide] had a CC50 at 1 day of more than 14.5 µM. Besides, the MIC50 in data set [2] came out at 0.00687 µM (≈ 0.00472 µg/mL). Also, the MIC amounted to 0.0146 µM (≈ 0.01 µg/mL) in data set [3], 0.024 µM (≈ 0.0165 µg/mL) in data set [4], 0.0731 µM (≈ 0.0503 µg/mL) in data set [5] and 0.0125 µM (≈ 0.0086 µg/mL) in data set [6].
Compound `Cc1cc(N2CCN(c3ccc(C(=O)Nc4ccc(F)cc4)cc3)CC2)c(C)cc1OC[C@@H]1CO[C@@](Cn2cncn2)(c2ccc(F)cc2F)C1` [Example 5, 4-(4-(4-(((3R,5R)-5-((1H-1,2,4-Triazol-1-yl)Methyl)-5-(2,4-Difluorophenyl) Tetrahydrofuran-3-yl)Methoxy)-2,5-Dimethylphenyl)Piperazin-1-yl)-N-(4-Fluorophenyl) Benzamide] displayed a CC50 at 1 day in data set [1] of more than 14.4 µM. In data set [2], the MIC50 worked out at 0.123 µM (≈ 0.0857 µg/mL). Moreover, the MIC in data set [3] worked out at 0.0966 µM (≈ 0.0673 µg/mL); in data set [4], 0.157 µM (≈ 0.109 µg/mL); in data set [5] it was 0.162 µM (≈ 0.113 µg/mL); in data set [6] it was 0.0133 µM (≈ 0.00927 µg/mL).
Compound `Cc1cc(N2CCN(c3ccc(C(=O)Nc4ccc(F)c(F)c4)cc3)CC2)ccc1OC[C@@H]1CO[C@@](Cn2cncn2)(c2ccc(F)cc2F)C1` [Example 27, 4-(4-(4-(((3R, 5R)-5-((1H-1,2,4-triazol-1-yl)methyl)-5-(2,4-difluorophenyl)tetrahydrofuran-3-yl)methoxy)-3-methylphenyl)piperazin-1-yl)-N-(3,4-difluorophenyl)benzamide] returned a CC50 at 1 day in data set [1] of more than 14.3 µM. In addition, the MIC is 0.0223 µM (≈ 0.0156 µg/mL) in data set [3], 0.0127 µM (≈ 0.0089 µg/mL) in data set [4], 0.136 µM (≈ 0.0953 µg/mL) in data set [5] and 0.0193 µM (≈ 0.0135 µg/mL) in data set [6].
`Cc1cc(N2CCN(c3ccc(C(=O)Nc4ccc(OC(F)(F)F)cn4)cc3)CC2)ccc1OC[C@@H]1CO[C@@](Cn2cncn2)(c2ccc(F)cc2F)C1` [Example 39, 4-(4-(4-(((3R,5R)-5-((1H-1,2,4-triazol-1-yl)methyl)-5-(2,4-difluorophenyl)tetrahydrofuran-3-yl)methoxy)-3-methylphenyl)piperazin-1-yl)-N-(5-(trifluoromethoxy)pyridin-2-yl)benzamide] displayed a CC50 at 1 day in data set [1] of more than 13.3 µM. In addition, the MIC in data set [5] was 0.0659 µM (≈ 0.0494 µg/mL); in data set [6], 0.052 µM (≈ 0.039 µg/mL).
The matching figures for `Cc1cc(N2CCN(c3ccc(C(=O)Nc4ccc(Cl)cn4)cc3)CC2)ccc1OC[C@@H]1CO[C@@](Cn2cncn2)(c2ccc(F)cc2F)C1` [Example 41, 4-(4-(4-(((3R, 5R)-5-((1H-1,2,4-triazol-1-yl)methyl)-5-(2,4-difluorophenyl)tetrahydrofuran-3-yl)methoxy)-3-methylphenyl)piperazin-1-yl)-N-(5-chloropyridin-2-yl)benzamide]: more than 14.3 µM, 0.261 µM (≈ 0.183 µg/mL) and 0.0576 µM (≈ 0.0403 µg/mL).

The values are drawn from patent publication US20230295133A1, “PROCESS FOR PREPARING A COMPOUND USEFUL TO TREAT MYCOSES” (PULMOCIDE LIMITED, priority 2014, published 2023).
